In patent publication US20160015725A1, “METHODS OF CONTROLLING TUMOR BIOENERGETICS NETWORKS” (THE WISTAR INSTITUTE OF ANATOMY AND BIOLOGY, priority 2012, published 2016):

Columns and labels:
Format in all cases: cell-based, human
[1] = system: V600E mutant BRAF melanoma cells; test: AMPK and autophagy signaling in mutant BRAF melanoma cells
Description: (§1) Human glioblastoma LN229, prostate adenocarcinoma PC3 or LNCaP cells, or normal NIH3T3 fibroblasts were obtained from the American Tissue Culture Collection (ATCC, Manassas, Va.), and maintained in culture according to the supplier's specifications. The following wild type (WT) BRAF N-Ras mutant melanoma cells WM852 and WM1366, and melanoma cells carrying a V600E activating mutation in the BRAF oncogene, 451Lu, Me11617 and WM983B were used in this study. WT or CypD knockout Mouse Embryonic Fibroblasts (MEFs, CypD−/−) were characterized earlier 40. In some experiments, CypD−/− MEFs were stably transfected with control plasmid, WT CypD or peptidyl prolyl isomerase (PPIase)-deficient H168Q CypD mutant cDNA, and analyzed for differential recruitment of HK-II to mitochondrial or cytosolic fractions.
(§2) For Western blotting, protein lysates were prepared from the different cell types in RIPA Buffer (150 mM NaCl, 1.0% Triton X-100, 0.5% sodium deoxycholate, 0.1% SDS, 50 mM Tris, pH 8.0) containing EDTA-free Protease Inhibitor Cocktail (Roche) and Phosphatase Inhibitor Cocktail 2 and 3 (Sigma Aldrich). Equal amounts of protein lysates were separated by SDS gel electrophoresis, transferred to PVDF membranes and incubated with primary antibodies of various specificities. Protein bands were detected by chemiluminescence.
(§3) Samples were imaged using a Leica TCS SP2 confocal microscope. For determination of autophagy, cells under the various conditions tested were harvested after 12 h, and analyzed with an antibody to […] (LC3) by Western blotting.

tumor cells [2] = test: ER UPR markers (Western blotting, Xbp1 splicing, RT-qPCR); details: for effect on Gamitrinib-induced AMPK phosphorylation and ER stress/UPR markers: agent added to Gamitrinib; for ER UPR markers (CHOP, C/EBPβ, Grp78): tumor cells, Western blotting
WT BRAF melanoma cells = test: AMPK and autophagy signaling in WT BRAF melanoma cells; details: WT BRAF melanoma cells
Description: as §1, §2, §3

[3] = system: multiple tumor cell types; test: ATP production in tumor cells (luciferin-luciferase)
Method: Intracellular ATP concentrations were measured by the luciferin—luciferase method using an ATP measuring kit (Biochain). The ATP concentration in each extract was measured with a microplate luminometer (Beckman Coulter) against standard ATP solutions used as reference. In some experiments, PC3 or LN229 cells were preincubated with sodium pyruvate for 7 h in the presence of vehicle or Gamitrinib before determination of ATP production.

LN229 cells = test: Cell viability by MTT
Method: Various cell types were seeded in triplicate onto 96-well plates at 4×10^3 cells/well, treated with vehicle, Gamitrinib or 17-AAG (0-20 μM) for 12 h, and analyzed for changes in metabolic activity by an MTT assay. For determination of apoptosis, LN229 cells ([…]) were labeled for annexin V and propidium iodide (PI) (BD Biosciences), and analyzed by multiparametric flow cytometry (BD).

[4] = system: AMP-activated kinase (AMPK); test: AMPK phosphorylation in tumor cells, Western blotting; details: tumor cells
mTORC1 = mTORC1 signaling in tumor cells, Western blotting
hexokinase = test: Hexokinase activity in mitochondrial fractions of treated cells; details: LN229 mitochondrial fractions, 5 h
Method: HK activity in LN229 cells was measured as the total glucosephosphorylating activity using a standard G6PDH-coupled assay kit (BioVision). Mitochondria isolated from Gamitrinib- or 17-AAG-treated LN229 cells, or cultures transfected with various siRNAs were homogenized in cold PBS, followed by centrifugation at 1000 g for 10 min at 4° C. HK activity was determined by analysis of G6P-dependent conversion of NADP to NADPH in the presence of excess […] in the presence of 2 mM glucose, and quantification of absorbance at 450 nm. All assays were performed at 25° C. under conditions of linear HK-limited NADPH formation.

PC3 cells = test: ER stress luciferase-promoter reporter assay; details: PC3, 20 h
Method: In another series of experiments, PC3 cells were transfected with control or Grp78-directed siRNA, and analyzed for cell viability after 24 h by an MTT assay. For promoter analysis, PC3 cells were plated in triplicate onto 48-well plates at 1.4×10^4 cells/well, and cotransfected with Firefly Luciferase-reporters for IRE1, ATF6, PERK or CHOP and a constitutive reporter (pTK-Renilla Luc) in a 10:1 ratio using X-tremeGENE reagent (Roche). After 24 h, cells were treated with vehicle, Gamitrinib, tunicamycin or 2-DG and analyzed after 20 h for Firefly and Renilla luciferase activity using a Dual Luciferase Reporter Assay System (Promega). Transfection of plasmid DNAs was carried out with lipofectamine 2000 (Invitrogen) according to published protocols. A PPIase-defective CypD H168Q mutant cDNA was generated by Quick-Change site-directed mutagenesis (Stratagene) using primers 5′-[…]-3′ (forward) and 5′-[…]-3′ (reverse) (mutated sequences are bolded). The inserted mutation (bolded) was confirmed by DNA sequencing, and cloned in a pcDNA3.0 expression vector (Invitrogen) for reconstitution experiments in CypD−/− MEFs.

tumor cells [5] = test: Autophagy (LC3 conversion, LC3-CFP puncta)
Method: LN229 cells were transfected with various siRNAs, and mixed after 24 h with plasmid encoding cyan fluorescent protein (CFP) fused to human […] (LC3) cDNA in the presence of Lipofectamine 2000 Transfection Reagent (Invitrogen). After 48 h, transfected cells were fixed in 4% paraformaldehyde for 15 min at 37° C., washed, and examined by fluorescence microscopy (Nikon, E600). The numbers of CFP-LC3 punctate dots per cell was determined from three independent experiments. A minimum of 50 CFP-LC3-positive cells assessed from at least ten random fields per sample were counted in triplicate per each condition.
as §3

Molecule: N#CC(=C(/N)Sc1ccccc1N)/C(C#N)=C(\N)Sc1ccccc1N [U0126, reference compound]
- AMPK phosphorylation after Gamitrinib treatment ([1]; mutant BRAF melanoma cells, agent added to Gamitrinib): partially restored AMPK phosphorylation

Molecule: CC(=O)N[C@@H](CS)C(=O)O [NAC, N-acetyl-L-cysteine, reference compound]
- effect on Gamitrinib-induced AMPK phosphorylation and ER stress/UPR markers (tumor cells [2]): did not affect

Molecule: C=CCNC1=C2C[C@@H](C)C[C@H](OC)[C@H](O)[C@@H](C)/C=C(\C)[C@H](OC(N)=O)[C@@H](OC)/C=C\C=C(/C)C(=O)NC(=CC1=O)C2=O [17-AAG, 17-allylamino demethoxygeldanamycin, reference compound]
- AMPK phosphorylation (WT BRAF melanoma cells): had no effect on AMPK activation
- ATP production ([3]; tumor cell types, non-cytotoxic concentrations, 5 h): had no effect on ATP production
- tumor cell viability, combination with 3-MA (LN229 cells; 17-AAG plus 3-MA vs each treatment alone): did not decrease tumor cell viability compared to each treatment alone
- AMPK activation ([1]; BRAF mutant melanoma cells): had no effect on AMPK activation
- AMPK phosphorylation [4]: not
- phosphorylation of mTOR, 4EBP1 and p70S6 (mTORC1) (mTORC1): had no effect
- hexokinase activity (hexokinase): had no effect

Molecule: CC(=O)C(=O)[O-].[Na+] [sodium pyruvate, reference compound]
- effect on Gamitrinib-induced AMPK phosphorylation and ER stress/UPR markers (tumor cells [2]): did not affect
- rescue of ATP production in Gamitrinib-treated tumor cells ([3]; exogenous addition, PC3 or LN229, 7 h): failed to rescue ATP production

Molecule: tunicamycin
- minimal CHOP promoter activity (PC3 cells): transcriptionally induced
- transcriptional activation of response elements of IRE-1, ATF-6 and PERK (PC3 cells): comparably induced transcriptional activation
- IRE-1 and CHOP expression (tumor cells [2]; control ER stressor): comparable induction of IRE-1 and CHOP expression

Molecule: Cn1cnc(N)c2ncnc1-2 [3-MA, 3-methyladenine]
- tumor cell killing mediated by sub-optimal concentrations of Gamitrinib (LN229 cells; agent added to Gamitrinib): enhanced tumor cell killing mediated by sub-optimal concentrations of Gamitrinib

Molecule: O=CC[C@@H](O)[C@H](O)[C@H](O)CO [2-DG, 2-deoxy-D-glucose]
- minimal CHOP promoter activity (PC3 cells): transcriptionally induced
- transcriptional activation of response elements of IRE-1, ATF-6 and PERK (PC3 cells): comparably induced transcriptional activation
- ER UPR markers (CHOP, C/EBPβ, Grp78) (tumor cells [2]): concentration (FIG. 14b)- and time (FIG. 14c)-dependent upregulation of ER UPR
- AMPK phosphorylation [4]: AMPK activation
- phosphorylation of mTOR, 4EBP1 and p70S6 (mTORC1) (mTORC1): suppression of mTORC1 4EPB1 and p70S6 phosphorylation

Molecule: N#CC(C#N)=NNc1cccc(Cl)c1 [CCCP, carbonyl cyanide 3-chlorophenylhydrazone, reference compound]
- ER UPR markers (CHOP, C/EBPβ, Grp78) (tumor cells [2]): upregulation of CHOP, C/EBPβ, and Grp78
- autophagy (LC3-II conversion) (tumor cells [5]): stimulation of LC3-II conversion
- AMPK phosphorylation [4]: time-dependent phosphorylation of AMPK
- phosphorylation of mTOR, 4EBP1 and p70S6 (mTORC1) (mTORC1): inhibition of 4EBP1 phosphorylation
